The target of assay [1] is T1, human LH receptor (Homo sapiens, UniProt P22888).
T1 construct: expressed in transfected cells; host or cells: Chinese Hamster Ovary (CHO) cells, stably transfected; cotransfected with CRE-luciferase reporter
Description: CHO-LH in vitro bioactivity (CRE-luciferase reporter). In kind it is cell-based. The conditions noted are these: CHO cells stably transfected with human LH receptor. The method, then: (§1) It has been shown that compounds of the above mentioned formula I show agonistic LH and FSH activity. […] Typically the FSH activity ranges from an activity of about 0.1% of the LH agonist stimulation to about 10% of the LH agonist stimulation.
(§2) LH agonistic activity of compounds were tested in Chinese Hamster Ovary (CHO) cells stably transfected with the human LH receptor and cotransfected with a cAMP responsive element (CRE)/promotor directing the expression of a firefly luciferase reporter gene. Binding of ligand to the Gs-coupled LH receptor will result in an increase of cAMP, which in turn will induce an increased transactivation of the luciferase reporter construct. The luciferase signal was quantified using a luminescence counter. For test compounds, EC50 values (concentration of test compound causing half-maximal (50%) stimulation) were calculated. For that purpose the software program GraphPad PRISM, version 3.0 (GraphPad software Inc., San Diego) was used.
Background: In a reporter assay the amount or activity of a reporter protein is the signal.

The target in assay [2] is T2, human FSH receptor (Homo sapiens, UniProt P23945).
T2 construct: expressed in transfected cells; host or cells: CHO cells transfected with human FSH receptor and CRE-luciferase reporter
T2 sequence (P23945 18-695): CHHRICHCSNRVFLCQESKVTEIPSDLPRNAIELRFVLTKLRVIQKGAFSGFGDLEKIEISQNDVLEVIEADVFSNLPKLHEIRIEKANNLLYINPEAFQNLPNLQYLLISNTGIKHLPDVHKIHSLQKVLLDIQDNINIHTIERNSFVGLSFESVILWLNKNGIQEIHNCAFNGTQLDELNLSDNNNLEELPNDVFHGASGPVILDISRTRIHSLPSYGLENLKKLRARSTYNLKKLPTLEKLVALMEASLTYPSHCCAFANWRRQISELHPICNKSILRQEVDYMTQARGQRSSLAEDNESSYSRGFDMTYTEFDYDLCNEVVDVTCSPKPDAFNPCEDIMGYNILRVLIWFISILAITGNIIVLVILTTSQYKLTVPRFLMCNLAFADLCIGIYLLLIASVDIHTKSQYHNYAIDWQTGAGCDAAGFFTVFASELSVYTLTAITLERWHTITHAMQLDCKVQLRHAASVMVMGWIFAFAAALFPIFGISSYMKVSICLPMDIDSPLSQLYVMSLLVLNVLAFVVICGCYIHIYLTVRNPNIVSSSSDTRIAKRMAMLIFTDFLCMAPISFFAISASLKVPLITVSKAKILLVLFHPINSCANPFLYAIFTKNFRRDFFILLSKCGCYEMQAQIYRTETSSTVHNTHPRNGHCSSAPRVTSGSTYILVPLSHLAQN
In words: CHO-FSH in vitro bioactivity (CRE-luciferase reporter). In kind it is cell-based. The settings on record: CHO cells transfected with human FSH receptor and luciferase reporter gene. The method, then:
as §1, §2
In a similar way FSH agonistic activity of compounds were tested in CHO cells transfected with the luciferase reporter gene and the human FSH receptor.

T1 sequence (P22888 27-699): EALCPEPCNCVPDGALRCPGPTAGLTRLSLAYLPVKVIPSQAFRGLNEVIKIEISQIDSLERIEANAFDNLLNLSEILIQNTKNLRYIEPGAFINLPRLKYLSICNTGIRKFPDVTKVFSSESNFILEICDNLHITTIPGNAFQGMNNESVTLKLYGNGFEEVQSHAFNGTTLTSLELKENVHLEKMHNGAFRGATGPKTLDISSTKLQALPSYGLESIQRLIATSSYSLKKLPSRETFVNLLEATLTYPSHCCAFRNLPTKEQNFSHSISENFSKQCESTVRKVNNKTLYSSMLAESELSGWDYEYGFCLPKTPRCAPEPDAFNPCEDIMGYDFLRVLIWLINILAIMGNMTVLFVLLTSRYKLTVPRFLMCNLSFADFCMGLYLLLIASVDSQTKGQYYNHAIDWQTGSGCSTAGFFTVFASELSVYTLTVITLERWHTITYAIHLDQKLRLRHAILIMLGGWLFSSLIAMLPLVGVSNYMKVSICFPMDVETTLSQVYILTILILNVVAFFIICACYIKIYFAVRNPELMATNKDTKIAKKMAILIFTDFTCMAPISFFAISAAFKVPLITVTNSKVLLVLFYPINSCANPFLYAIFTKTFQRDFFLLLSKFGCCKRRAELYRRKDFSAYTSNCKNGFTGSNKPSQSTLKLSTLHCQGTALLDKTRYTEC

For the compound `CSc1nc(-c2cccc(NC(=O)CNC(C)(C)CO)c2)c2c(N)c(C(=O)NC(C)(C)C)sc2n1` [Example 2, tert-Butyl 5-amino-2-methylthio-4-(3-((N-(1-hydroxy-2-methyl-prop-2-yl) -glycinyl)-amino)-phenyl)-thieno[2,3-d]pyrimidine-6-carboxamide], the EC50 was determined as 5.42 nM in assay [1] and 806 nM in assay [2].

On to `COC(=O)CNCC(=O)Nc1cccc(-c2nc(SC)nc3sc(C(=O)NC(C)(C)C)c(N)c23)c1` [Example 3, tert-Butyl 5-amino-2-methylthio-4-(3-((N-(methoxycarbonylmethyl)-glycinyl)-amino)-phenyl)-thieno[2,3-d]pyrimidine-6-carboxamide], for which the 50% effective concentration (EC50) in assay [1] amounted to 5.97 nM; in assay [2], 1440 nM.

Consider `COC(=O)[C@H](NCC(=O)Nc1cccc(-c2nc(SC)nc3sc(C(=O)NC(C)(C)C)c(N)c23)c1)C(C)C` [Example 5, tert-Butyl 5-amino-2-methylthio-4-(3-((N-(R-1-methoxycarbonyl-2-methyl-prop-1-yl)-glycinyl)-amino)-phenyl)-thieno[2,3-d]pyrimidine-6-carboxamide], for which the values for the EC50 in assay [1] and in assay [2] were 9.63 nM and 348 nM, respectively.

For the compound `COCCN(CCOC)CC(=O)Nc1cccc(-c2nc(SC)nc3sc(C(=O)NC(C)(C)C)c(N)c23)c1` [Example 6, tert-Butyl 5-amino-2-methylthio-4-(3-((N,N-bis-(2-methoxyethyl)-glycinyl)-amino)-phenyl)-thieno[2,3-d]pyrimidine-6-carboxamide], the EC50 in assay [1] was found to be 10 nM; in assay [2], 1180 nM.

In the case of `CSc1nc(-c2cccc(NC(=O)CNCC(O)CO)c2)c2c(N)c(C(=O)NC(C)(C)C)sc2n1` (centres unmarked) [Example 7], the EC50 in assay [1] came to 12.2 nM; in assay [2] it was 1130 nM.

As to `CSc1nc(-c2cccc(NC(=O)CNC(CO)CO)c2)c2c(N)c(C(=O)NC(C)(C)C)sc2n1` [Example 8], the concentration giving a half-maximal response (EC50) was 26.4 nM in assay [1] and 1000 nM in assay [2].

Consider `COC(=O)CNCC(=O)Nc1cccc(-c2nc(-c3ccccc3)nc3sc(C(=O)NC(C)(C)C)c(N)c23)c1` [Example 10], for which the EC50 is 10.1 nM in assay [1] and 2480 nM in assay [2].

`CN(CCO)CC(=O)Nc1cccc(-c2nc(-c3ccco3)nc3sc(C(=O)NC(C)(C)C)c(N)c23)c1` [Example 11, tert-Butyl 5-amino-2-(2-furyl)-4-(3-((N-methyl-N-(2-hydroxyethyl)-glycinyl)-amino)-phenyl)-thieno[2,3-d]pyrimidine-6-carboxamide]: the EC50 in assay [1] was found to be 4 nM; in assay [2], 616 nM.

On to `CC(C)(C)NC(=O)c1sc2nc(-c3ccco3)nc(-c3cccc(NC(=O)CNC(C)(C)CO)c3)c2c1N` [Example 12], for which the concentration giving a half-maximal response (EC50) stood at 11.8 nM in assay [1] and 2970 nM in assay [2].

Consider `COC(=O)CNCC(=O)Nc1cccc(-c2nc(-c3ccco3)nc3sc(C(=O)NC(C)(C)C)c(N)c23)c1` [Example 13], for which the EC50 came out at 12.1 nM in assay [1] and 2550 nM in assay [2].

Consider `CN(CCO)CC(=O)Nc1cccc(-c2nc(-c3cccs3)nc3sc(C(=O)NC(C)(C)C)c(N)c23)c1` [Example 14, tert-Butyl 5-amino-2-(2-thienyl)-4-(3-((N-methyl-N-(2-hydroxyethyl)-glycinyl)-amino)-phenyl)-thieno[2,3-d]pyrimidine-6-carboxamide], for which the EC50 in assay [1] was 5.28 nM; in assay [2] it was 1440 nM.

For the compound `COC(=O)CNCC(=O)Nc1cccc(-c2nc(-c3cccs3)nc3sc(C(=O)NC(C)(C)C)c(N)c23)c1` [Example 15, tert-Butyl 5-amino-2-(2-thienyl)-4-(3-((N-(methoxycarbonylmethyl)-glycinyl)-amino)-phenyl)-thieno[2,3-d]pyrimidine-6-carboxamide], the EC50 turned out to be 18.2 nM in assay [1] and 3210 nM in assay [2].

As to `COCCN(CCOC)CC(=O)Nc1cccc(-c2nc(-c3cccs3)nc3sc(C(=O)NC(C)(C)C)c(N)c23)c1` [Example 16, tert-Butyl 5-amino-2-(2-thienyl)-4-(3-((N,N-di-(2-methoxyethyl)-glycinyl)-amino)-phenyl)-thieno[2,3-d]pyrimidine-6-carboxamide], the figures for the EC50 in assay [1] and in assay [2] were 21.3 nM and 6810 nM, respectively.

For `CN(CCO)CC(=O)Nc1cccc(-c2nc(N(C)C)nc3sc(C(=O)NC(C)(C)C)c(N)c23)c1` [Example 18, tert-Butyl 5-amino-2-(N,N-dimethylamino)-4-(3-((N-methyl-N-(2-hydroxyethyl)-glycinyl)-amino)-phenyl)-thieno[2,3-d]pyrimidine-6-carboxamide], the EC50 in assay [1] was 14.5 nM; in assay [2], 1630 nM.

`CCNc1nc(-c2cccc(NC(=O)CNCC(=O)OC)c2)c2c(N)c(C(=O)NC(C)(C)C)sc2n1` [Example 19, tert-Butyl 5-amino-2-ethylamino-4-(3-((N-(methoxycarbonylmethyl)-glycinyl)-amino)-phenyl)-thieno[2,3-d]pyrimidine-6-carboxamide]: the EC50 amounted to 22.9 nM in assay [1] and 2300 nM in assay [2].

On to `CCN(CCOC)CC(=O)Nc1cccc(-c2nc(NC(C)C)nc3sc(C(=O)NC(C)(C)C)c(N)c23)c1` [Example 20, tert-Butyl 5-amino-2-isopropylamino-4-(3-((N-ethyl-N-(2-methoxyethyl)-glycinyl)-amino)-phenyl)-thieno[2,3-d]pyrimidine-6-carboxamide], for which the EC50 in assay [1] came out at 42.4 nM; in assay [2], 2950 nM.

As for `C=CCNc1nc(-c2cccc(NC(=O)CNCC(=O)OC)c2)c2c(N)c(C(=O)NC(C)(C)C)sc2n1` [Example 21, tert-Butyl 5-amino-2-allylamino-4-(3-((N-(methoxycarbonylmethyl)-glycinyl)-amino)-phenyl)-thieno[2,3-d]pyrimidine-6-carboxamide], the EC50 in assay [1] turned out to be 57 nM; in assay [2] it was 560 nM.

Consider `CCN(CCOC)CC(=O)Nc1cccc(-c2nc(OC)nc3sc(C(=O)NC(C)(C)C)c(N)c23)c1` [Example 22, tert-Butyl 5-amino-2-methoxy-4-(3-((N-ethyl-N-(2-methoxyethyl)-glycinyl)-amino)-phenyl)-thieno[2,3-d]pyrimidine-6-carboxamide], for which the concentration for a half-maximal effect (EC50) came out at 11.6 nM in assay [1] and 953 nM in assay [2].

Regarding `C=CCOc1nc(-c2cccc(NC(=O)CN(CC)CCOC)c2)c2c(N)c(C(=O)NC(C)(C)C)sc2n1` [Example 23, tert-Butyl 5-amino-2-allyloxy-4-(3-((N-ethyl-N-(2-methoxyethyl)-glycinyl)-amino)-phenyl)-thieno[2,3-d]pyrimidine-6-carboxamide], the EC50 worked out at 36.8 nM in assay [1] and 1740 nM in assay [2].

Turning to `CCN(CCOC)CC(=O)Nc1cccc(-c2nc(OC(C)C)nc3sc(C(=O)NC(C)(C)C)c(N)c23)c1` [Example 24, tert-Butyl 5-amino-2-isopropoxy-4-(3-((N-ethyl-N-(2-methoxyethyl)-glycinyl)-amino)-phenyl)-thieno[2,3-d]pyrimidine-6-carboxamide], the EC50 was found to be 78.2 nM in assay [1] and 2510 nM in assay [2].

For the compound `CC(C)(C)NC(=O)c1sc2nc(-c3ccncc3)nc(-c3cccc(NC(=O)CNC(C)(C)CO)c3)c2c1N` [Example 25, tert-Butyl 5-amino-2-(4-pyridyl)-4-(3-((N-(1-hydroxy-2-methyl-prop-2-yl) -glycinyl)-amino)-phenyl)-thieno[2,3-d]pyrimidine-6-carboxamide], the results for the EC50 in assay [1] and in assay [2] were 34.7 nM and 400 nM, respectively.

As to `COCCN(CCOC)CC(=O)Nc1cccc(-c2nc(-c3ccncc3)nc3sc(C(=O)NC(C)(C)C)c(N)c23)c1` [Example 26, tert-Butyl 5-amino-2-(4-pyridyl)-4-(3-((N,N-bis-(2-methoxyethyl)-glycinyl)-amino)-phenyl)-thieno[2,3-d]pyrimidine-6-carboxamide], the EC50 in assay [1] amounted to 38.2 nM; in assay [2] it was 1230 nM.

Broadly, the EC50 is the concentration giving half of the maximal effect. A high value points to a less potent agent.

The record behind these values is US7375109B2, “Glycine-substituted thieno[2,3-d]pyrimidines with combined LH and FSH agonistic activity” (N.V. Organon, priority 2001, dated 2008).
